Active and inactive are the calls of the source. How the calls were made is not given here.
System: CCRIS mutagenicity, Ames/micronucleus/aberration tests
Assay: CCRIS mutagenicity studies

With `O=Cc1c([N+](=O)[O-])cccc1[N+](=O)[O-]` the mutagenic call (Test System: AMES SALMONELLA TYPHIMURIUM, Strain/Indicator: TA98, Metabolic Activation: NONE, Method: PREINCUBATION) was “active; positive”, the mutagenic call (Test System: AMES SALMONELLA TYPHIMURIUM, Strain/Indicator: TA98, Metabolic Activation: RAT, LIVER, S-9, PHENOBARBITAL AND 5,6-BENZOFLAVONE, Method: PREINCUBATION) was “inactive; negative” and the mutagenic call (Test System: AMES SALMONELLA TYPHIMURIUM, Strain/Indicator: TA100(1,8-DNP6), Metabolic Activation: NONE, Method: SUSPENSION/PLATE) was “active; positive”. The mutagenic call (Test System: AMES SALMONELLA TYPHIMURIUM, Strain/Indicator: TA100(NR), Metabolic Activation: NONE, Method: SUSPENSION/PLATE) was “active; positive”, the mutagenic call (Test System: AMES SALMONELLA TYPHIMURIUM, Strain/Indicator: TA100, Metabolic Activation: NONE, Method: PREINCUBATION) was “active; positive” and the mutagenic call (Test System: AMES SALMONELLA TYPHIMURIUM, Strain/Indicator: TA100, Metabolic Activation: NONE, Method: SUSPENSION/PLATE) was “active; positive”. The mutagenic call (Test System: AMES SALMONELLA TYPHIMURIUM, Strain/Indicator: TA100, Metabolic Activation: RAT, LIVER, S-9, PHENOBARBITAL AND 5,6-BENZOFLAVONE, Method: PREINCUBATION) was “active; positive”.
In the case of `O=C1OC(O)C(CBr)=C1Br` (centres undefined), the mutagenic call (Test System: AMES SALMONELLA TYPHIMURIUM, Strain/Indicator: TA100, Metabolic Activation: NONE, Method: STANDARD PLATE) was “active; positive”.
In the case of `NN`, the mutagenic call (End Point: IN VITRO CHROMOSOMAL ABERRATIONS, Test System: CHL CELLS, Metabolic Activation: NONE) was “active; positive (structural changes)”, the mutagenic call (End Point: IN VITRO CHROMOSOMAL ABERRATIONS, Test System: CHL CELLS, Metabolic Activation: RAT, LIVER, S-9, SODIUM PHENOBARBITAL AND 5,6-BENZOFLAVONE) was “active; positive (structural changes)” and the mutagenic call (Test System: AMES SALMONELLA TYPHIMURIUM, Strain/Indicator: G46, Metabolic Activation: HAMSTER, LIVER, HOMOGENATE, Method: PREINCUBATION) was “active; positive”. For the same molecule, the mutagenic call (Test System: AMES SALMONELLA TYPHIMURIUM, Strain/Indicator: G46, Metabolic Activation: MOUSE, LIVER, HOMOGENATE, Method: PREINCUBATION) was “active; positive”, the mutagenic call (Test System: AMES SALMONELLA TYPHIMURIUM, Strain/Indicator: G46, Metabolic Activation: RAT, LIVER, HOMOGENATE, Method: PREINCUBATION) was “active; positive” and the mutagenic call (Test System: AMES SALMONELLA TYPHIMURIUM, Strain/Indicator: TA98, Metabolic Activation: RAT LIVER S-9, PHENOBARBITAL AND BETA-NAPHTHOFLAVONE, Method: PREINCUBATION) was “inactive; negative”. For the same molecule, the mutagenic call (Test System: AMES SALMONELLA TYPHIMURIUM, Strain/Indicator: TA100, Metabolic Activation: RAT LIVER S-9, PHENOBARBITAL AND BETA-NAPHTHOFLAVONE, Method: PREINCUBATION) was “inactive; negative”, the mutagenic call (Test System: AMES SALMONELLA TYPHIMURIUM, Strain/Indicator: TA102, Metabolic Activation: NONE, Method: PREINCUBATION) was “active; positive” and the mutagenic call (Test System: AMES SALMONELLA TYPHIMURIUM, Strain/Indicator: TA102, Metabolic Activation: NONE, Method: STANDARD PLATE) was “inactive; negative”. The mutagenic call (Test System: AMES SALMONELLA TYPHIMURIUM, Strain/Indicator: TA1535, Metabolic Activation: HAMSTER, LIVER, HOMOGENATE, Method: PREINCUBATION) was “active; positive”, the mutagenic call (Test System: AMES SALMONELLA TYPHIMURIUM, Strain/Indicator: TA1535, Metabolic Activation: MOUSE, LIVER, HOMOGENATE, Method: PREINCUBATION) was “active; positive” and the mutagenic call (Test System: AMES SALMONELLA TYPHIMURIUM, Strain/Indicator: TA1535, Metabolic Activation: NONE, Method: PREINCUBATION) was “active; positive”. The mutagenic call (Test System: AMES SALMONELLA TYPHIMURIUM, Strain/Indicator: TA1535, Metabolic Activation: RAT LIVER S-9, PHENOBARBITAL AND BETA-NAPHTHOFLAVONE, Method: PREINCUBATION) was “active; positive”, the mutagenic call (Test System: AMES SALMONELLA TYPHIMURIUM, Strain/Indicator: TA1535, Metabolic Activation: RAT, LIVER, HOMOGENATE, Method: PREINCUBATION) was “active; positive” and the mutagenic call (Test System: AMES SALMONELLA TYPHIMURIUM, Strain/Indicator: TA1537, Metabolic Activation: NONE, Method: PREINCUBATION) was “inactive; negative”. The mutagenic call (Test System: AMES SALMONELLA TYPHIMURIUM, Strain/Indicator: TA1537, Metabolic Activation: RAT LIVER S-9, PHENOBARBITAL AND BETA-NAPHTHOFLAVONE, Method: PREINCUBATION) was “inactive; negative”, the mutagenic call (Test System: AMES SALMONELLA TYPHIMURIUM, Strain/Indicator: TA2638, Metabolic Activation: NONE, Method: STANDARD PLATE) was “inactive; negative” and the mutagenic call (Test System: E. COLI, Strain/Indicator: WP2 (PKM101), Metabolic Activation: NONE, Method: STANDARD PLATE) was “active; positive”. The mutagenic call (Test System: E. COLI, Strain/Indicator: WP2 UVRA (PKM101), Metabolic Activation: NONE, Method: STANDARD PLATE) was “active; positive”, the mutagenic call (Test System: E. COLI, Strain/Indicator: WP2 UVRA, Metabolic Activation: NONE, Method: PREINCUBATION) was “active; positive” and the mutagenic call (Test System: E. COLI, Strain/Indicator: WP2 UVRA, Metabolic Activation: RAT, LIVER, MICROSOMES, PHENOBARBITAL, Method: PREINCUBATION) was “active; positive”. The mutagenic call (Test System: E.COLI, Strain/Indicator: WP2UVRA, Metabolic Activation: NONE, Method: PREINCUBATION) was “active; positive” and the mutagenic call (Test System: E.COLI, Strain/Indicator: WP2UVRA, Metabolic Activation: RAT LIVER S-9, PHENOBARBITAL AND BETA-NAPHTHOFLAVONE, Method: PREINCUBATION) was “active; positive”.
With `COc1cc(C[C@@H](CO)[C@H](CO)Cc2ccc(O)c(OC)c2)ccc1O` the mutagenic call (Test System: CHINESE HAMSTER V79 CELLS, Strain/Indicator: V79 CELLS (HPRT)/6-THIOGUANINE, Metabolic Activation: NONE, Method: SUSPENSION/PLATE) was “inactive; negative” and the mutagenic call (Test System: CHINESE HAMSTER V-79, Strain/Indicator: V-79 (HPRT)/6-THIOGUANINE, Metabolic Activation: NONE) was “inactive; negative”.
For `C[C@H](N)C(=O)c1ccccc1`, the mutagenic call (End Point: In vivo chromosomal aberrations, Test System: Blood from cardiac puncture, Species: Rat, Strain/Sex: Sprague-Dawley/Male, Route: Oral) was “active; positive (high dose significantly different from control and low dose)”.

Reference: PubChem BioAssay AID1259407 (Chemical Carcinogenesis Research Information System (CCRIS), 2018)
